Measurements as given in patent publication US7700763B2, “3-triazolyl-galactoside inhibitors of galectins” (Forskarpatent I Syd AB, priority 2004, dated 2010).
Where two headings read alike, the source gives them in different places.

How the values were obtained:
[1] = molecular target: T1, Recombinant human galectin-3 (Homo sapiens, UniProt P17931); test: fluorescence polarization-based galectin-3 inhibition assay; type: binding
T1 construct: made in house; host or cells: Escherichia coli
Experimental: NMR-spectra were recorded with a Bruker DRX-400 instrument. Chemical shifts are given in ppm, with reference to internal residual solvent peaks. Chemical shifts and coupling constants were obtained from ^1H-NMR and proton resonances were assigned from COSY experiments. High-resolution FAB mass spectra (HRMS) were recorded with a JEOL SX-120 instrument. Fluorescence polarization experiments were performed on a PolarStar instrument (BMG, Offenburg; Germany). Column chromatography was performed on SiO2 (Matrex, 60 Å, 35-70 μm, Grace Amicon) and TLC was carried out on SiO2 60 F254 (Merck) with detection under UV light and developed with aqueous sulfuric acid. Concentrations were made using rotary evaporation with bath temperature at or below 40° C. CH2Cl2 and CH3CN were dried by distillation from CaH2. Microwell plates were from Costar, Corning, N.Y. (black polystyrene). Recombinant human galectin-3 was produced in Escherichia coli and purified as previously described (S. M. Massa et al, 1993). PBS was 118 mM NaCl, 67 mM Na/K-phosphate, pH 7.2, 2 mM EDTA, 4 mM β-mercaptoethanol.
To 100 μL of galectin-3 (1 μM) and a fluorescent probe (2-(fluorescein-5/6-yl-carbonyl)-aminoethyl 4-O-[3-O-(4-methoxy]benzyl)-β-D-galactopyranosyl]-β-D-glucopyranoside, 0.1 μM) were added inhibitor solution (3.2-10000 μM, 100 μL), the plate was incubated under slow rotary shaking in the dark for 5 minutes, and fluorescence polarization measured at room temperature. The fluorescence was measured from above in 96 well microtiter plates (black polystyrene, Costar, Corning, N.Y.) using a PolarStar instrument (BMG, Offenburg; Germany). Control wells containing only fluorescent probe or fluorescein were included. All dilutions and measurements were done in PBS.

galectins = conditions: cited from earlier work
[2] = galectin-3, fluorescence polarization

T1 sequence (P17931 whole entry): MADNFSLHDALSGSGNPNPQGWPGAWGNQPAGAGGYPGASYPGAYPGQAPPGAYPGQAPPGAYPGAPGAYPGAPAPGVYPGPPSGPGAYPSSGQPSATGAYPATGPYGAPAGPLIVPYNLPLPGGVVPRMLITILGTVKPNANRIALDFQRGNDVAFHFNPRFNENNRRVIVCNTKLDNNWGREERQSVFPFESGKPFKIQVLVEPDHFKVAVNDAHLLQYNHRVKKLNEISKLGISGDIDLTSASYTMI

| Kd ([1]; read-out: Calculated Kd) [nM] | Compound | other results |
| --- | --- | --- |
| 1.38e+06 | CS[C@@H]1O[C@H](CO)[C@H](O)[C@H](n2cc(C3(O)CCCCC3)nn2)[C@H]1O [Compound 11, Methyl 3-deoxy-3-(4-(1-hydroxy-1-cyclohexyl)-1H-[1,2,3]-triazol-1-yl)-1-thio-β-D-galactopyranoside] |  |
|  | CS[C@@H]1O[C@H](CO)[C@H](O)[C@H](n2cc(C(=O)NCc3ccccc3)nn2)[C@H]1O [Compound 16, Methyl 3-(4-benzylaminocarbonyl-1H-[1,2,3]-triazol-1-yl)-3-deoxy-1-thio-β-D-galactopyranoside] | improvement in Kd in comparison with the reference inhibitor 27 [1, 2]: 50 fold |
|  | OC[C@H]1O[C@@H](O[C@H]2[C@H](O)[C@@H](O)C(O)O[C@@H]2CO)[C@H](O)[C@@H](O)[C@H]1O (some centres unmarked) [lactose] | Kd (galectins; all galectins, reviewed by Leffler, 2001 and Leffler et al., 2004): 500 to 1000 µM |
| 141000 | CS[C@@H]1O[C@H](CO)[C@H](O)[C@H](n2cc(S(=O)(=O)c3ccc(C)cc3)nn2)[C@H]1O [Compound 13, Methyl 3-deoxy-3-(4-p-tolylsulfonyl-1H-[1,2,3]-triazol-1-yl)-1-thio-β-D-galactopyranoside] | improvement in Kd in comparison with the reference inhibitor 27 [1, 2]: 50 fold |
|  | CNC(=O)c1cn([C@H]2[C@@H](O)[C@@H](CO)O[C@@H](S[C@@H]3O[C@H](CO)[C@H](O)[C@H](n4cc(C(=O)NC)nn4)[C@H]3O)[C@@H]2O)nn1 [Compound 26, Bis-(3-deoxy-3-{4-[(methylamino)carbonyl]-1H-1,2,3-triazol-1-yl}-β-D-galactopyranosyl)sulfane] | Kd ([1]; galectin-3, fluorescence polarization, value given in text in nM, read-out: Kd): 150 nM |
| 1.41e+06 | COC(=O)c1cn([C@H]2[C@@H](O)[C@@H](CO)O[C@@H](SC)[C@@H]2O)nn1 [Compound 10, Methyl 3-(4-methoxycarbonyl-1H-[1,2,3]-triazol-1-yl)-3-deoxy-1-thio-β-D-galactopyranoside] |  |
| 571000 | CS[C@@H]1OC(CO)[C@H](O)C(n2cc(C(=O)NCCN3CCOCC3)nn2)C1O (stereo partly drawn) [Compound 18, Methyl 3-{4-[2-(N-morpholino)-ethylaminocarbonyl]-1H-[1,2,3]-triazol-1-yl}-3-deoxy-1-thio-β-D-galactopyranoside] |  |
|  | CNC(=O)c1cn([C@H]2[C@@H](O)[C@@H](CO)O[C@@H](SC)[C@@H]2O)nn1 [Compound 14, Methyl 3-(4-methylaminocarbonyl-1H-[1,2,3]-triazol-1-yl)-3-deoxy-1-thio-β-D-galactopyranoside] | Kd ([1]; affinity for galectin-3 calculated from test by fluorescence polarization at one tested conc., galectin-3 1 μM, probe 0.1 μM, PBS, room temperature, read-out: Calculated Kd): 230000 nM |
| 4.62e+06 | CCCc1cn([C@H]2[C@@H](O)[C@@H](CO)O[C@@H](SC)[C@@H]2O)nn1 [Compound 9, Methyl 3-deoxy-3-(4-propyl-1H-[1,2,3]-triazol-1-yl)-1-thio-β-D-galactopyranoside] |  |
|  | O=C[C@H](O)[C@@H](O)[C@@H](O)[C@H](O)CO [D-galactose] | affinity lower than lactose (galectins; galectins, relative to lactose): 50-100 times |
| 2.1e+07 | CS[C@@H]1O[C@H](CO)[C@H](O)[C@H](n2ccnn2)[C@H]1O [Compound 8, Methyl 3-deoxy-3-(1H-[1,2,3]-triazol-1-yl)-1-thio-β-D-galactopyranoside] |  |
| 147000 | CS[C@@H]1O[C@H](CO)[C@H](O)[C@H](n2cc(-c3ccccc3)nn2)[C@H]1O [Compound 12, Methyl 3-deoxy-3-(4-phenyl-1H-[1,2,3]-triazol-1-yl)-1-thio-β-D-galactopyranoside] | improvement in Kd in comparison with the reference inhibitor 27 [1, 2]: 50 fold |
| 124000 | CCCCNC(=O)c1cn(C2C(O)[C@H](SC)OC(CO)[C@@H]2O)nn1 (stereo partly drawn) [Compound 15, Methyl 3-(4-butylaminocarbonyl-1H-[1,2,3]-triazol-1′-yl)-3-deoxy-1-thio-β-D-galactopyranoside] | improvement in Kd in comparison with the reference inhibitor 27 [1, 2]: 50 fold |
| 386000 | CS[C@@H]1O[C@H](CO)[C@H](O)[C@H](n2cc(C(=O)NCCCO)nn2)[C@H]1O [Compound 17, Methyl 3-{4-(3-hydroxyprop-1-ylaminocarbonyl)-1H-[1,2,3]-triazol-1-yl}-3-deoxy-1-thio-β-D-galactopyranoside] |  |
